Experimental data: patent publication US20200370015A1, “METHOD FOR PRODUCING ERYTHROID PROGENITOR CELLS” (ETABLISSEMENT FRANCAIS DU SANG, priority 2017, published 2020)

How the values were obtained:
Format in all cases: cell-based, human
CD34+ from cytapheresis = test: Amplification of erythroid progenitors from CD34+ HSCs derived from cytapheresis (cell count); conditions: cell count after culture
Method: (§1) IMDM (Biochrom), supplemented with transferrin (330 μg/mL), insulin (10 μg/mL), 5% AB serum pool (EFS) and heparin (3 U/mL). From day 0 to day 7, the medium was supplemented with IL-3 (5 ng/mL), SCF (100 ng/mL) and EPO (2 IU/mL). From day 7 until the end of the amplification of erythroblastic progenitors, the medium was supplemented with SCF (100 ng/mL) and EPO (2 IU/mL).
HSCs are obtained after magnetic separation using CD34+ beads according to the protocol provided by Milenyi (see CD34 MicroBead Kit, human, from Miltenyi Biotec).
On day 0 the cells were seeded at a concentration of 10,000 cells/mL, on day 4 the cells were diluted 1/5 in new medium, on day 7 the cells were washed and cultured at 100,000 cells/mL in new medium. On day 11 the cells were diluted to 100,000 cells/mL and seeded in a new medium. On day 14 the cells were reseeded at 300,000 cells/mL in a new medium. On day 18 the cells were diluted to 0.5 million/mL. From day 21 onwards, the cells were systematically returned to 1 million/mL on each maintenance day (i.e., twice per week).
Protocol 1: From day 0 to day 11 the cells are cultured in the basal medium. On day 11 the medium used is supplemented with 253.9 μM DMOG. […]
The cells are diluted to a tenth in trypan blue solution, allowing cell mortality to be assessed if necessary.

CD34+ HTERT BMI1 LMO2 = test: Amplification of erythroid progenitors from engineered cytapheresis HSCs overexpressing HTERT, BMI1 and LMO2 (cell count); conditions: cell count on day 65
Method: as §1
(§2) HSCs are obtained from cytapheresis after magnetic separation using Miltenyi CD34+ beads.
(§3) On day 0 the cells were seeded at a concentration of 100,000 cells/mL, for two successive infections with the HTERT BMI1 lentiviral supernatant and the BCL-XL retroviral supernatant or the HTERT BMI1 lentiviral supernatant and the LMO2 lentiviral supernatant; on day 3 the cells were washed 3 times and reseeded at a concentration of 10,000 cells/mL, on day 4 the cells were diluted to 1/5 in new medium. On day 7 the cells were washed and cultured at 100,000 cells/mL in new medium. On day 11 the cells were diluted to 100,000 cells/mL and seeded in a new medium. On day 14 the cells were reseeded to 300,000 cells/mL in a new medium. On day 18 the cells were diluted to 0.5 million/mL. From day 21 onwards, the cells were systematically reset to 1 million/mL each day of maintenance (i.e., twice per week).
(§4) Protocol 1: From day 0 to day 11 the cells are cultured in the basal medium. […]

CD34+ HTERT BMI1 BCL-XL = test: Amplification of erythroid progenitors from engineered cytapheresis HSCs overexpressing HTERT, BMI1 and BCL-XL (cell count); conditions: cell count on day 65
Method: as §1, §2, §3, §4

C[C@@H]1C[C@H]2[C@@H]3CCC4=CC(=O)C=C[C@]4(C)[C@@]3(F)[C@@H](O)C[C@]2(C)[C@@]1(O)C(=O)CO [Protocol 3, dexamethasone]
amplification of erythroid progenitors/CD34+ from cytapheresis on day 58 (CD34+ from cytapheresis): 2.47 · 10^7 | amplification of erythroid progenitors/CD34+ (CD34+ HTERT BMI1 LMO2) (CD34+ HTERT BMI1 LMO2): 5.12 · 10^6 | amplification of erythroid progenitors/CD34+ (CD34+ HTERT BMI1 BCL-XL) (CD34+ HTERT BMI1 BCL-XL): 5.76 · 10^5
